The source of these data is patent US8343966B2, “Organic compounds” (Novartis AG, priority 2008, dated 2013).

Sequences and labels used below:
T1: human ALK5 (ALK5 T204D kinase domain) (Homo sapiens, UniProt P36897, T204D)
T1 construct: The kinase domain of human ALK5 (amino acids 200-503); made in house; host or cells: insect cells (baculovirus)
T1 sequence (P36897 200-503 T204D): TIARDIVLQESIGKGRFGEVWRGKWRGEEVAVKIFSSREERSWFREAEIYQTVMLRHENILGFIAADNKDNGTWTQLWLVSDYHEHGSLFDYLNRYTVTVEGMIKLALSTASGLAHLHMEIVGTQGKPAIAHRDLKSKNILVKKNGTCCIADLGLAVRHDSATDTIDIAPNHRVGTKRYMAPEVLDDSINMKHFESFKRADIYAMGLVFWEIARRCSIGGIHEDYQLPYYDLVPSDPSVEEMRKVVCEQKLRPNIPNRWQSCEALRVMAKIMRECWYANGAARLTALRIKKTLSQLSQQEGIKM

B1: Follistatin: an antagonist of activin signalling (protein, UniProt P19883 30-344, looked up)
Follistatin: GNCWLRQAKNGRCQVLYKTELSKEECCSTGRLSTSWTEEDVNDNTLFKWMIFNGGAPNCIPCKETCENVDCGPGKKCRMNKKNKPRCVCAPDCSNITWKGPVCGLDGKTYRNECALLKARCKEQPELEVQYQGRCKKTCRDVFCPGSSTCVVDQTNNAYCVTCNRICPEPASSEQYLCGNDGVTYSSACHLRKATCLLGRSIGLAYEGKCIKAKSCEDIQCTGGKKCLWDFKVGRGRCSLCDELCPDSKSDEPVCASDNATYASECAMKEAACSSGVLLEVKHSGSCNSISEDTEEEEEDEDQDYSFPISSILEW

The first data set relates to bleomycin-treated rats.
Experiment: not given
The settings on record: cited from earlier work.
Turning to B1, the lung fibrosis entry is given as “attenuated”; the “number of macrophages and neutrophils in bronchoalveolar lavage” value is on record as “significantly reduced”.

The target of a further data set is T1, human ALK5 (ALK5 T204D kinase domain). As to the kind of experiment: ALK5 kinase assay, [33P] phosphate incorporation into casein. The note with it: casein substrate, 1 μM unlabelled ATP. The format is biochemical. The procedure: The kinase activity of ALK5 is assessed by measuring radiolabelled phosphate [33P] incorporation in to the generic substrate, casein. The kinase domain of human ALK5 (amino acids 200-503) is fused to an N-terminal histidine tag. The kinase activity of ALK5 is rendered constitutive via point mutation at amino acid 204 (threonine to aspartate modification, ALK5 T204D) and the kinase construct is engineered to be expressed from a baculovirus expression construct in insect cells. The purified, recombinantly-expressed histidine-tagged ALK5 T204D protein is dissolved at 5.4 mg/ml in 50 mM Tris-HCl pH 8.0, 150 mM NaCl, 5 mM DTT. ALK5 T204D is dissolved to 2.5 μg/ml in assay buffer (Assay buffer: 20 mM Tris-HCl pH 7.4, 10 mM MgCl2, 2 mM MnCl2) on the day of use.
Test compounds and reference compounds are dissolved in assay buffer without DTT containing 5% (v/v) DMSO. Stock solutions of test and reference compounds are diluted in assay buffer with DTT (1.25 mM) containing 4.5% (v/v) DMSO. 10 μl of test or reference compound are added to the appropriate wells of 96 well U-bottomed plate. Total enzyme activity is determined by measuring ALK5 T204D activity in the absence of ALK5 kinase inhibitor reference compounds. Non-specific binding (NSB) is determined by measuring the activity of ALK5 T204D in the presence of ALK5 kinase inhibitor reference compounds. 10 μl of dephosphorylated casein stock solution (dephosphorylated casein is dissolved in ddH2O at 20 mg/ml) is added per well (200 μg/well final assay concentration). 20 μl of ALK5 T204D (2.5 μg/ml solution) is added per well (50 ng/well final assay concentration). The plates are left to incubate at room temperature for 10 minutes.
10 μl of ATP mix is added to the well to initiate the reaction (0.66 nM [^33P]ATP/1 μM unlabelled ATP/well final assay concentration). The ATP mix is prepared as follows, unlabelled ATP (3 mM) is dissolved in ddH2O and pH adjusted to 7.4. The stock concentration of [^33P]ATP is 10 μCi/μl. The appropriate volume of [^33P]ATP is added to unlabelled ATP solution such that the final assay concentration per well is 0.1 μCi. Following addition of the ATP mix, the plates are incubated at room temperature for 50 minutes. The kinase reaction is terminated by the addition of 50 μL Stop Buffer (20 mM Tris-HCl pH 7.4, 10 mM EDTA).
75 μl/well from the reaction plate is transferred to a Multiscreen-IP plate (MultiScreen-IP plates are prepared by added 50 μL of 70% (v/v) ethanol per well and incubated for 5 minutes at room temperature. The ethanol is removed by aspiration via a MultiScreen HTS Vacuum Manifold unit (Millipore, Cat no: MSVMHT500). The plates are washed twice by adding 200 μl/well ddH2O). The MultiScreen-IP plate is incubated at room temperature for 30 minutes to allowing binding of casein to the plate. The MultiScreen-IP plates are washed three times by adding 200 μl/well 100 mM phosphoric acid solution and the gasket is carefully removed from the back of the MultiScreen-IP plate and the plate dried in the oven for 30 minutes. The MultiScreen-IP plate is backsealed, 50 μL of Microscint™20 is added, then the plates are topsealed and radiolabelled casein detected and quantified on a TopCount™ plate-reader using the ^33P scintillation protocol.
Broadly, the IC50 is the concentration at which inhibition is half-maximal. Molecule `[2H]C([2H])([2H])Nc1cc(-c2cncc(-c3ccc(CN4CCN(C(C)(C)C)CC4)cc3)c2)cc(-c2ccccn2)n1` [Example 2.107, {5″-[4-(4-tert-Butyl-piperazin-1-ylmethyl)-phenyl]-[2,2′;4′,3″]terpyridin-6′-yl}-methyl-d3-amine] showed an IC50 of 13 nM.

Take `CCNc1cc(-c2cncc(-c3cccc(CN4CCN(C(C)(C)C)CC4)c3)c2)cc(-c2ccccn2)n1` [Example 2.111, {5″-[3-(4-tert-Butyl-piperazin-1-ylmethyl)-phenyl]-[2,2′;4′,3″]terpyridin-6′-yl}-ethyl-amine]: the concentration for half-maximal inhibition (IC50) was determined as 154 nM.

Molecule `CCNc1cc(-c2cncc(-c3cccc(CN4CCN(C(C)C)CC4)c3)c2)cc(-c2ccccn2)n1` [Example 2.114, Ethyl-{5″-[3-(4-isopropyl-piperazin-1-ylmethyl)-phenyl]-[2,2′;4′,3″]terpyridin-6′-yl}-amine] came in with a 50% inhibitory concentration (IC50) of 42 nM.

`CCNc1cc(-c2cncc(-c3cc(C)cc(CN)c3)c2)cc(-c2ccccn2)n1` [Example 2.116, [5″-(3-Aminomethyl-5-methyl-phenyl)-[2,2′;4′,3″]terpyridin-6′-yl]-ethyl-amine] returned an IC50 of 48 nM. The IC50 values of the last two molecules are within 1.5-fold of each other.

The molecule `CC(C)(C)N1CCN(Cc2cccc(-c3cncc(-c4cc(NC5CC5)nc(-c5ccccn5)c4)c3)c2)CC1` [Example 2.119, {5″-[3-(4-tert-Butyl-piperazin-1-ylmethyl)-phenyl]-[2,2′;4′,3″]terpyridin-6′-yl}-cyclopropyl-amine] gave an IC50 of 64 nM.

For the molecule `CC(C)(C)N1CCN(Cc2ccc(-c3cncc(-c4cc(NC5CC5)nc(-c5ccccn5)c4)c3)cc2)CC1` [Example 2.120, {5″-[4-(4-tert-Butyl-piperazin-1-ylmethyl)-phenyl]-[2,2′;4′,3″]terpyridin-6′-yl}-cyclopropyl-amine], the IC50 is 22 nM.

Regarding `Cc1ccc(-c2cc(-c3cncc(-c4ccc(CN5CCN(C(C)C)CC5)cc4)c3)cc(NC3CC3)n2)o1` [Example 2.125, Cyclopropyl-[5-[4-(4-isopropyl-piperazin-1-ylmethyl)-phenyl]-6′-(5-methyl-furan-2-yl)-[3,4′]bipyridinyl-2′-yl]-amine], the IC50 was 38 nM.

Turning to `CC(C)Nc1cc(-c2cncc(-c3cccc(CN4CCN(C(C)(C)C)CC4)c3)c2)cc(-c2ccccn2)n1` [Example 2.133, {5″-[3-(4-tert-Butyl-piperazin-1-ylmethyl)-phenyl]-[2,2′;4′,3″]terpyridin-6′-yl}-isopropyl-amine], the 50% inhibitory concentration (IC50) was 357 nM.

The molecule `CC(C)Nc1cc(-c2cncc(-c3ccc(CN4CCN(C(C)(C)C)CC4)cc3)c2)cc(-c2ccccn2)n1` [Example 2.134, {5″-[4-(4-tert-Butyl-piperazin-1-ylmethyl)-phenyl]-[2,2′;4′,3″]terpyridin-6′-yl}-isopropyl-amine] registered an IC50 of 22 nM. Compared with the last molecule, the IC50 is about 16-fold lower.

For `CC(C)(C)N1CCN(Cc2ccc(-c3cncc(-c4cc(N)nc(-c5ccccn5)c4)c3)cc2)CC1` [Example 2.158, 5″-[4-(4-tert-Butyl-piperazin-1-ylmethyl)-phenyl]-[2,2′;4′,3″]terpyridin-6′-ylamine], the IC50 was 35 nM.

Molecule `Nc1cc(-c2cncc(-c3ccc(CN4CCNCC4)cc3)c2)cc(-c2ccccn2)n1` [Example 2.159, 5″-(4-piperazin-1-ylmethyl-phenyl)-[2,2′;4′,3″]terpyridin-6′-ylamine] showed an IC50 of 24 nM.

`CNc1cc(-c2cncc(-c3ccc(CN4CCNCC4)cc3)c2)cc(-c2ccccn2)n1` [Example 2.172, Methyl-[5″-(4-piperazin-1-ylmethyl-phenyl)-[2,2′;4′,3″]terpyridin-6′-yl]-amine] displayed a concentration for half-maximal inhibition (IC50) of 10 nM.

As to `CNc1cc(-c2cncc(-c3cnn(C4CCNCC4)c3)c2)cc(-c2ccn(C)n2)n1` [Example 2.179, Methyl-[6′-(1-methyl-1H-pyrazol-3-yl)-5-(1-piperidin-4-yl-1H-pyrazol-4-yl)-[3,4′]bipyridinyl-2′-yl]-amine], the concentration for half-maximal inhibition (IC50) was 5 nM.

A further data set deals with dimethylnitrosamine induced liver fibrosis.
Experiment: not given
The note with it: during the 3 weeks treatment; cited from earlier work.
For `c1ccc(-c2cc(-c3cn[nH]c3-c3ccccn3)ccn2)cc1` [GW6604], the side effects entry was “no obvious side effects”.

The data set is the same for the next values; noted with them: given therapeutically to rat, 3 weeks treatment; cited from earlier work.
Consider `c1ccc(-c2cc(-c3cn[nH]c3-c3ccccn3)ccn2)cc1` [GW6604], for which the “inhibition of extracellular matrix deposition” value is reported as 60% and the prevented death rate is reported as 40%.
